Assay results: patent publication US4895956A, “3-aroyl-6,7-dihydro-5H-pyrrolo(1,2-c)imidazole-7-carboxylic acid derivatives” (Hisamitsu Pharmaceutical Co., Ltd., priority 1987, dated 1990)

Legend:
[1] = test system: writhing induced by acetic acid; experiment: Inhibitory actions on the writhing induced by acetic acid in mice; assay type: in vivo, mouse (male ddY strain mice); conditions: 50 mg/kg, oral, 30 min before 0.6% acetic acid; writhing counted for 10 min, 5 min after acetic acid; vs control group
Protocol: Inhibitory actions on the writhing induced by acetic acid in mice
Male ddY strain mice weighing 20-24 g were used a group consisting 7-9 animals. Each compound was orally administered to mice. Thirty minutes later, 0.6% acetic acid was abdominally administered at a dose of 0.1 ml/10 g. The number of writhing was counted 5 minutes after the administration of the acetic acid for 10 minutes. The inhibitory percentage were determined by comparing the number of writhing to the control group.

[2] = test system: carrageenin-induced paw edema; experiment: Inhibitory actions on carrageenin-induced paw edema; assay type: in vivo, rat (male rats of Wistar strain); conditions: 50 mg/kg, oral, 60 min before 1% λ-carrageenin; 3 hours after induction; vs control group
Protocol: Inhibitory actions on carrageenin-induced paw edema
Using male rats of Wistar strain each weighing approximately 150 g, 0.1 ml of 1% λ-carrageenin was subcutaneously injected into the paw of each rat to induce the reaction. Since then, the volume of paw edema was measured in time course. Each compound of the present invention was orally administered to the rats 60 minutes before the induction of the reaction. As shown in the following Table, the results were expressed in terms of inhibitory percentage in comparison with those in control group at 3 hours after the induction of the reaction.

gastric mucous = experiment: Gastric mucous damage test in rats; assay type: in vivo, rat (male rats of Wistar strain); conditions: oral, rats fasted 18 hours
Protocol: Gastric mucous damage test in rats
Using male rats of Wistar strain each weighing approximately 160 g, compounds of the present invention were orally administered to the rats previously fasting for 18 hours. Three point five hours later, 1 ml/rat of a 5% Pontamin Sky Blue solution was intravenously injected to the rats. Rats were dissected to remove the stomachs therefrom. A 10 ml of 70% ethanol was injected into the stomachs to fix them, and the stomachs were cut and washed with a 10% hydrogen peroxide/ethanol mixed liquid and then visually observed to fine whether ulcers were formed therein.

[3] = Acute toxicity test in mice; conditions: in vivo; male mouse, oral, 14 days observation
Source text: (§1) Acute toxicity test in rats and mice
(§2) Each group consisting 8 animals such as male Wistar rats weighing about 120 g and male ddY mice weighing about 25 g was used. Compounds of the present invention were orally administered to the animals. General symptoms, changes in body weight and lethality of the test animals had been observed over a period of time for 14 days after the oral administration.

[4] = Acute toxicity test in rats; conditions: in vivo; male rat, oral, 14 days observation
Source text: as §1, §2

| Structure (SMILES) | Inhibition (inhibitory percentage of writhing) [1] | Inhibition (inhibitory percentage of paw edema) [2] | Ulcer formation (gastric mucous; 100 mg/kg) | LD50 at 336 h [3] | LD50 at 336 h [4] | Ulcer formation (gastric mucous; 10 mg/kg) |
| --- | --- | --- | --- | --- | --- | --- |
| CC(C)c1ccc(C(=O)c2ncc3n2CCC3C(=O)O)cc1 (stereo not drawn) [Compound of Example 24] | 79.3% | 51.6% | 0/6 | > 3000 mg/kg | > 5000 mg/kg | – |
| O=C(c1ccc(Cl)cc1)c1nc(Br)c2n1CCC2C(=O)O (stereo not drawn) [Compound of Example 16] | 84.5% | 50.7% | 0/6 | > 3000 mg/kg | > 5000 mg/kg | – |
| O=C(c1ccccc1)c1nc(Br)c2n1CCC2C(=O)O (stereo not drawn) [Compound of Example 5, 3-benzoyl-1-bromo-6,7-dihydro-5H-pyrrolo[1,2-c]imidazole-7-carboxylic acid] | 87.5% | 48.4% | 0/6 | > 3000 mg/kg | > 5000 mg/kg | – |
| COc1ccc(C(=O)c2ncc3n2CCC3C(=O)O)cc1 (stereo not drawn) [Compound of Example 15] | 86.3% | 53.9% | 0/6 | > 3000 mg/kg | > 5000 mg/kg | – |
| O=C(c1ccccc1Cl)c1nc(Br)c2n1CCC2C(=O)O (stereo not drawn) [Compound of Example 9] | 83.3% | 50.1% | 0/6 | > 3000 mg/kg | > 5000 mg/kg | – |
| COc1ccc2c(c1)c(CC(=O)O)c(C)n2C(=O)c1ccc(Cl)cc1 [Indomethacine, reference compound] | – | – | – | – | – | 6/6 |
| CC(=O)Oc1ccccc1C(=O)O [Aspirin, reference compound] | – | – | 6/6 | – | – | – |
